According to ChEMBL document CHEMBL3856192, “Aroylhydrazone iron chelators: Tuning antioxidant and antiproliferative properties by hydrazide modifications” (Eur J Med Chem, 2016):

Tests used:
H9c2 [1] = test: Protection against t-BHP-induced oxidative injury in rat H9c2 cells assessed as increase in cell viability incubated for 10 mins followed by stimulation with t-BHP for 24 hrs by neutral red staining based assay; format: functional
[2] = Stability in rabbit plasma assessed as parent compound remaining at 100 uM after 10 hrs by HPLC analysis; format: ADME, cell-free, Oryctolagus cuniculus; conditions: read-out: Stability
[3] = Cytotoxicity against rat H9c2 cells assessed as decrease in cell viability after 72 hrs by neutral red staining based assay; format: toxicity
[4] = Drug uptake in human SK-N-MC cells by beta scintillation counting analysis; format: ADME, cell-based
[5] = Iron chelating activity assessed as Fe2+-compound complex formation at 5 uM measured for 360 secs by calcein based fluorescence assay relative to salicylaldehyde isonicotinoyl hydrazone; format: physicochemical; conditions: 0.1 h
[6] = Cytotoxicity against human MCF7 cells assessed as decrease in cell viability after 72 hrs by neutral red staining based assay; format: functional; conditions: MCF7, 72 h
MCF7 [7] = test: Inhibition of 59Fe uptake in human MCF7 cells labeled with 59Fe transferrin at 25 uM after 3 hrs relative to control; format: functional; conditions: MCF7, 3 h
MCF7 [8] = test: Induction of transferrin labeled 59Fe mobilization in human MCF7 cells assessed as cellular 59Fe released at 25 uM after 3 hrs by gamma scintillation counting analysis (reference value: 11%); format: functional
H9c2 [9] = test: Selectivity index, ratio of IC50 for rat H9c2 cells to IC50 for human MCF7 cells; format: functional
H9c2 [10] = test: Selectivity index, ratio of IC50 for rat H9c2 cells to IC50 for human HL60 cells; format: functional
[11] = Cytotoxicity against human HL60 cells assessed as decrease in cell viability after 72 hrs by MTT assay; format: functional, cell-based; conditions: HL-60, 72 h
[12] = Selectivity index, ratio of IC50 for rat L8 cells to IC50 for human SK-N-MC cells; format: functional
[13] = Antiproliferative activity against HUVEC after 22 to 72 hrs by MTT assay; format: cell-based; conditions: Homo sapiens
SK-N-MC = test: Selectivity index, ratio of IC50 for HUVEC to IC50 for human SK-N-MC cells
[14] = Antiproliferative activity against rat L8 cells after 22 to 72 hrs by MTT assay; format: cell-based
[15] = Antiproliferative activity against human SK-N-MC cells after 22 to 72 hrs by MTT assay; format: functional, cell-based
[16] = Iron chelating activity assessed as Fe3+-compound complex-induced antioxidant activity by measuring ascorbate oxidation level at iron binding equivalent of 3 measured after 10 to 40 mins in presence of 500 uM of citrate relative to control; format: physicochemical
H9c2 [17] = test: Protection against H202-induced oxidative injury in rat H9c2 cells assessed as increase in cell viability after 24 hrs by neutral red staining based assay; format: functional; conditions: H9c2, 24 h
[18] = Iron chelating activity assessed as Fe3+-compound complex-induced antioxidant activity by measuring decrease in ascorbate oxidation level at iron binding equivalent of 3 measured after 10 to 40 mins in presence of 100 uM of citrate relative to control; format: physicochemical
H9c2 [19] = test: Selectivity index, ratio of IC50 for rat H9c2 cells to EC50 for rat H9c2 cells; format: functional
[20] = Iron chelating activity assessed as Fe3+-compound complex-induced antioxidant activity by measuring ascorbate oxidation level at iron binding equivalent of 0.1 measured after 10 to 40 mins in presence of 500 uM of citrate relative to control; format: physicochemical

| Compound | remaining at 10 h, 100 µM [2] | IC50 at 72 h [3] | Activity [5] | IC50 [6] | inhibition at 25 µM (MCF7 [7]) | Activity (MCF7 [8]) | Ratio IC50 (H9c2 [9]) | Ratio IC50 (H9c2 [10]) | IC50 [11] | Activity [16] | other results |
| --- | --- | --- | --- | --- | --- | --- | --- | --- | --- | --- | --- |
| C/C(=N\NC(=O)c1ccncc1)c1ccccc1O | 26% | 12.6 µM |  |  |  |  |  |  |  |  | EC50 (H9c2 [1]): 11.4 µM |
| CN(C)C(=S)NN=[14C](c1ccccn1)c1ccccn1 |  |  |  |  |  |  |  |  |  |  | Kd [4]: 2.45 µM |
| CC/C(=N\NC(=O)c1cccc2ccccc12)c1ccccc1O | 76% | > 200 µM | 84 to 109% | 3.5 µM | 17 to 61% | 50 - 56% | >57 | >57 | 3.5 µM |  |  |
| O=C(N/N=C/c1c(O)ccc2ccccc12)c1ccncc1 |  |  |  |  |  |  |  |  |  |  | Ratio IC50 [12]: 11; IC50 [13]: 20.1 µM; Ratio IC50 (SK-N-MC): 40; IC50 [14]: 5.4 µM; IC50 [15]: 0.5 µM |
| CC/C(=N\NC(=O)c1cccnc1)c1ccccc1O |  | 7.1 µM | 84 to 109% | 5 µM | 17 to 61% | 50 - 56% | 1.4 | 1.5 | 4.9 µM | 10 to 44% | EC50 (H9c2 [17]): 30 µM |
| C/C(=N\NC(=O)c1ccnnc1)c1ccccc1O |  | 22.8 µM | 97 to 107% | 7.6 µM | 17 to 61% | 54 - 57% | 3 | 3.6 | 6.4 µM | 10 to 44% | EC50 (H9c2 [17]): 55.3 µM |
| CC/C(=N\NC(=O)c1cnccn1)c1ccccc1O |  | > 100 µM | 84 to 109% | 27.3 µM | 17 to 61% | 50% | >4 | >4 | 27 µM | 10 to 44% |  |
| C/C(=N\NC(=O)c1cccc2ccccc12)c1ccccc1O | 95% | > 200 µM | 79% | 3.8 µM | 17 to 61% | 54 - 57% | >52 | >52 | 3.9 µM |  |  |
| C/C(=N\NC(=O)c1cccnc1)c1ccccc1O |  | 6.8 µM | 97 to 107% | 8.3 µM | 17 to 61% | 54 - 57% | 0.8 | 0.9 | 7.5 µM | 10 to 44% |  |
| C/C(=N\NC(=O)c1cnccn1)c1ccccc1O |  | 41.2 µM | 97 to 107% | 22.4 µM | 17 to 61% | 42% | 1.8 | 1.9 | 22.3 µM | 10 to 44% |  |
| CC/C(=N\NC(=O)c1ccc(-c2ccccc2)cc1)c1ccccc1O | 41% | > 100 µM | 84 to 109% | 1.3 µM | 17 to 61% | 51% | >78 | >78 | 1.3 µM |  |  |
| C/C(=N\NC(=O)c1ccc(-c2ccccc2)cc1)c1ccccc1O | 90% | > 100 µM | 7% | 4.6 µM | 17 to 61% | 41% | >22 | >37 | 2.7 µM |  |  |
| CC/C(=N\NC(=O)c1ccncc1)c1ccccc1O | 41% |  |  | 34.7 µM |  |  |  |  |  |  | EC50 (H9c2 [1]): 17.8 µM |
| CC/C(=N\NC(=O)c1ccnnc1)c1ccccc1O | 85% | > 200 µM | 84 to 109% | 14.9 µM | 17 to 61% | 50 - 56% | >13 | >21 | 9.1 µM | 10 to 44% | Activity [18]: Active; EC50 (H9c2 [17]): 25 µM; Ratio IC50/EC50 (H9c2 [19]): 8 |
| CC(=O)N(O)CCCCCNC(=O)CCC(=O)N(O)CCCCCNC(=O)CCC(=O)N(O)CCCCCN [DEFEROXAMINE] |  |  |  |  |  |  |  |  |  | 16% | Activity [20]: 93% |
| O=C(N/N=C/c1ccccc1O)c1ccncc1 [SALINAZID] |  | 28.9 µM |  | 12.4 µM | 15% | 58% | 2.3 | 5.1 | 5.7 µM | 7% | EC50 (H9c2 [1]): 18.2 µM |
